For 13 compounds, IC50 results are on record in patent US20240317744A1, “Bicyclic Ureas As Kinase Inhibitors” (Incyte Corporation, priority 2023, published 2024).

For assay [1], the target named is catalytic domain (JH1, amino acids 808-1132) of human JAK2 (Homo sapiens, UniProt O60674). Nature of the assay: JAK2 HTRF Enzyme Activity Assay. The note with it: ATP 30 µM, 60 minutes at 25° C.; read-out: V617F ENZ 30 UM. The assay is classed as biochemical. Background: In TR-FRET formats the signal depends on donor and acceptor labels being close together.
catalytic domain (JH1, amino acids 808-1132) of human JAK2, sequence (O60674 808-1132 limits assumed): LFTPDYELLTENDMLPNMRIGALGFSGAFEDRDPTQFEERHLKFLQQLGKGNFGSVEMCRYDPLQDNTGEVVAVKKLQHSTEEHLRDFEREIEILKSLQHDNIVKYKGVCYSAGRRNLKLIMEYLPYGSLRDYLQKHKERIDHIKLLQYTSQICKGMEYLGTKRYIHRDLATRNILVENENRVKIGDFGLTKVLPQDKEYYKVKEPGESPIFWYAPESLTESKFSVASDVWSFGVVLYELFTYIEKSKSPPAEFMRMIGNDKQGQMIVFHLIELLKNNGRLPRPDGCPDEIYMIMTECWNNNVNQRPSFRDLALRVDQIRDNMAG
Assay [2] deals with T1, pseudo-kinase domain (JH2, amino-acids 536-812) of human V617F mutant JAK2 (Homo sapiens, UniProt O60674, F794H/V617F/W659A/W777A).
T1 construct: pseudo-kinase domain (JH2, amino-acids 536-812 with 3 surface mutations W659A, W777A, F794H); His (C); purchased BPS Bioscience 79498; host or cells: baculovirus expression system
T1 sequence (O60674 536-812 V617F/W659A/W777A/F794H): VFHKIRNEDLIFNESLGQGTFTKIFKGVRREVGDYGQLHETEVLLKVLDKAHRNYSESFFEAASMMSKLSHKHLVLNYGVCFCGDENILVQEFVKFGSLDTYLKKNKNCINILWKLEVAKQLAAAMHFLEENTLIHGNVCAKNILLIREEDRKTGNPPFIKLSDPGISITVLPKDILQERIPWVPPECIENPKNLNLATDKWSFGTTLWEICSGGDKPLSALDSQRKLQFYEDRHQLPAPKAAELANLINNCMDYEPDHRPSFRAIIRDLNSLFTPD
Nature of the assay: JAK2 LanthaScreen JH2-V617F Binding Assay. To be noted: JAK2 JH2-V617F 0.26 nM, 50 nM tracer, 1 hour at 25° C.; read-out: JH2 BIND V617F. A digest of the protocol:
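Competition of compounds with a fluorescent tracer (50 nM) for the biotinylated domain (0.26 nM), detected via streptavidin-Tb (0.25 nM) after 1 h at 25° C in pH 7.5 Tris buffer containing glycerol, BSA and Brij-35. ATP at 2 mM gave background. IC50 by four-parameter fit.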

Assay [3] addresses T2, catalytic domain (JH1, amino acids 826-1132) of human JAK2 (Homo sapiens, UniProt O60674).
T2 construct: catalytic domain (JH1, amino acids 826-1132) of human JAK2; FLAG (N); biotin (biotinylated); purchased Carna Biosciences 08-445-20N; host or cells: baculovirus expression system
The assay can be described thus: JAK2 LanthaScreen JH1 Binding Assay. The note with it: JAK2 JH1 1.5 nM, 50 nM tracer, 2 hours at 25° C.; read-out: JH1 BIND. A digest of the protocol:
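FLAG-tagged, biotinylated JAK2 JH1 (aa 826-1132, baculovirus-expressed; 1.5 nM) incubated 2 h at 25° C with compounds, 50 nM fluorescent tracer and 0.5 nM Streptavidin-Tb in Tris pH 7.5 buffer with MgCl2, Brij-35, BSA, EGTA, glycerol, DTT. Nonspecific binding defined with 2 mM ATP; TR-FRET IC50 from four-parameter fit.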

Assay [4] deals with T3, pseudo-kinase domain (JH2, amino-acids 536-812) of human Wild Type JAK2 (Homo sapiens, UniProt O60674, F794H/W659A/W777A).
T3 construct: pseudo-kinase domain (JH2, amino-acids 536-812 with 3 surface mutations W659A, W777A, F794H); His (C); purchased BPS Bioscience 79463; host or cells: baculovirus expression system
T3 sequence (O60674 536-812 W659A/W777A/F794H): as the sequence (O60674 536-812 V617F/W659A/W777A/F794H) above, with F82V counted along it
Nature of the assay: JAK2 LanthaScreen JH2-WT Binding Assay. The note with it: JAK2 JH2-WT 0.145 nM, 50 nM tracer, 1 hour at 25° C.; read-out: JH2 BIND WT. A digest of the protocol: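 Biotinylated C-terminal His-Avi-tagged JH2 (residues 536-812, baculovirus-expressed) at 0.145 nM was incubated with serially diluted compounds, 50 nM fluorescent JAK2-JH2 tracer and 0.25 nM streptavidin-Tb cryptate in pH 7.5 Tris buffer with MgCl2, Brij-35, BSA, EGTA, glycerol and DTT. LanthaScreen TR-FRET was read after 1 hour at 25° C; IC50 came from four-parameter fits.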

T2 sequence (O60674 826-1132): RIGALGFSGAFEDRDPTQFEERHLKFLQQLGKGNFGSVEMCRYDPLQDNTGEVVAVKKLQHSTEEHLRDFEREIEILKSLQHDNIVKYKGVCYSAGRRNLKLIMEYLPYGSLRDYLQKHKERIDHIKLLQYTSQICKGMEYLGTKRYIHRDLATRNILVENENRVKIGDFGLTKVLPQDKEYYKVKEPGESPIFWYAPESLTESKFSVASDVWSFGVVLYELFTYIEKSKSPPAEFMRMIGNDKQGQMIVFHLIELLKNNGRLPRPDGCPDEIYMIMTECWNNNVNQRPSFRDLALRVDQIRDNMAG

On to `[2H]C([2H])([2H])n1c(=O)n([C@@H]2CC[C@@H](NC(=O)OC)C2)c2cc(Nc3cc(C(C)(C)O)c4nc(C)n(-c5cnn(C(F)F)c5)c4n3)ncc21` [Example 115, Methyl ((1R,3R)-3-(6-((3-(1-(difluoromethyl)-1H-pyrazol-4-yl)-7-(2-hydroxypropan-2-yl)-2-methyl-3H-imidazo[4,5-b]pyridin-5-yl)amino)-3-(methyl-d3)-2-oxo-2,3-dihydro-1H-imidazo[4,5-c]pyridin-1-yl)cyclopentyl)carbamate], for which the IC50 in assay [1] was greater than 1000 nM; in assay [2], no more than 10 nM; in assay [3], greater than 1000 nM; in assay [4], no more than 10 nM.

As to `[2H]C([2H])([2H])n1c(=O)n([C@@H]2CC[C@@H](NC(=O)OC)C2)c2cc(Nc3cc(C(C)(C)O)cc(-c4ncc(Cl)s4)n3)ncc21` [Example 93, Methyl ((1R,3R)-3-(6-((6-(5-chlorothiazol-2-yl)-4-(2-hydroxypropan-2-yl)pyridin-2-yl)amino)-3-(methyl-d3)-2-oxo-2,3-dihydro-1H-imidazo[4,5-c]pyridin-1-yl)cyclopentyl)carbamate], the IC50 in assay [1] was greater than 1000 nM; in assay [2], no more than 10 nM; in assay [3] it was greater than 1000 nM; in assay [4], no more than 10 nM.

With `[2H]C([2H])([2H])n1c(=O)n([C@@H]2CC[C@](C)(NC(=O)C3CC3)C2)c2cc(Nc3cc(C(C)(C)O)cc(-c4ncc(Cl)s4)n3)ncc21` [Example 92, N-((1S,3R)-3-(6-((6-(5-Chlorothiazol-2-yl)-4-(2-hydroxypropan-2-yl)pyridin-2-yl)amino)-3-(methyl-d3)-2-oxo-2,3-dihydro-1H-imidazo[4,5-c]pyridin-1-yl)-1-methylcyclopentyl)cyclopropanecarboxamide], the IC50 in assay [1] was greater than 1000 nM; in assay [2] it was no more than 10 nM; in assay [3], greater than 1000 nM; in assay [4] it was no more than 10 nM.

As to `[2H]C([2H])([2H])n1c(=O)n([C@@H]2CC[C@@H](NC(=O)OC)C2)c2cc(Nc3cc(C(=O)N4CCOCC4)cc(-c4ccc5c(c4)OCCO5)n3)ncc21` [Example 82, Methyl ((1R,3R)-3-(6-((6-(2,3-dihydrobenzo[b][1,4]dioxin-6-yl)-4-(morpholine-4-carbonyl)pyridin-2-yl)amino)-3-(methyl-d3)-2-oxo-2,3-dihydro-1H-imidazo[4,5-c]pyridin-1-yl)cyclopentyl)carbamate], the IC50 was greater than 1000 nM in assay [1], no more than 10 nM in assay [2], greater than 1000 nM in assay [3] and no more than 10 nM in assay [4].

In the case of `COC(=O)Nc1cc(Nc2cc3c(cn2)n(C)c(=O)n3[C@@H]2CC[C@@H](NC(=O)OC)C2)cc(C2CCCOC2)c1` (stereo partly drawn) [Example 21, Methyl (3-((1-((1R,3R)-3-((methoxycarbonyl)amino)cyclopentyl)-3-methyl-2-oxo-2,3-dihydro-1H-imidazo[4,5-c]pyridin-6-yl)amino)-5-(tetrahydro-2H-pyran-3-yl)phenyl)carbamate], the IC50 in assay [1] is greater than 1000 nM; in assay [2], no more than 10 nM; in assay [3], greater than 1000 nM; in assay [4] it was no more than 10 nM.

`COC(=O)Nc1cc(Nc2cc3c(cn2)n(C)c(=O)n3[C@H]2C[C@H](C#N)C2)cc(-c2cnn(C)c2)c1` [Example 28, Methyl (3-((1-((1r,3r)-3-cyanocyclobutyl)-3-methyl-2-oxo-2,3-dihydro-1H-imidazo[4,5-c]pyridin-6-yl)amino)-5-(1-methyl-1H-pyrazol-4-yl)phenyl)carbamate]: the IC50 was greater than 1000 nM in assay [1], 100 to 500 nM in assay [2], greater than 1000 nM in assay [3] and 10 to 100 nM in assay [4].

`[2H]C([2H])([2H])n1c(=O)n([C@@H]2CC[C@@H](NC(=O)OC)C2)c2cc(Nc3cc(C(=O)N4CC[C@@H](F)C4)cc(-c4ccc5c(c4)OCCO5)n3)ncc21` [Example 80, Methyl ((1R,3R)-3-(6-((6-(2,3-dihydrobenzo[b][1,4]dioxin-6-yl)-4-((R)-3-fluoropyrrolidine-1-carbonyl)pyridin-2-yl)amino)-3-(methyl-d3)-2-oxo-2,3-dihydro-1H-imidazo[4,5-c]pyridin-1-yl)cyclopentyl)carbamate]: the IC50 in assay [1] is greater than 1000 nM; in assay [2] it was no more than 10 nM; in assay [3], greater than 1000 nM; in assay [4], no more than 10 nM.

Turning to `[2H]C([2H])([2H])n1c(=O)n([C@@H]2CC[C@](C)(NC(=O)C3CC3)C2)c2cc(Nc3cc(CO)c4nn(C)c(-c5cnn(C(F)(F)F)c5)c4n3)ncc21` [Example 117, N-((1S,3R)-3-(6-((7-(hydroxymethyl)-2-methyl-3-(1-(trifluoromethyl)-1H-pyrazol-4-yl)-2H-pyrazolo[4,3-b]pyridin-5-yl)amino)-3-(methyl-d3)-2-oxo-2,3-dihydro-1H-imidazo[4,5-c]pyridin-1-yl)-1-methylcyclopentyl)cyclopropanecarboxamide], the IC50 was greater than 1000 nM in assay [1], no more than 10 nM in assay [2], greater than 1000 nM in assay [3] and no more than 10 nM in assay [4].

In the case of `COC(=O)N[C@@H]1CC[C@@H](n2c(=O)n(C)c3cnc(Nc4cccc(OC5CCOCC5)n4)cc32)C1` [Example 37, Methyl ((1R,3R)-3-(3-methyl-2-oxo-6-((6-((tetrahydro-2H-pyran-4-yl)oxy)pyridin-2-yl)amino)-2,3-dihydro-1H-imidazo[4,5-c]pyridin-1-yl)cyclopentyl)carbamate], the IC50 in assay [1] was greater than 1000 nM; in assay [2], 10 to 100 nM; in assay [3], greater than 1000 nM; in assay [4], no more than 10 nM.

`COC(=O)Nc1cc(Nc2cc3c(cn2)n(C)c(=O)n3[C@@H]2CC[C@@H](NC(=O)OC)C2)cc(-c2cn(C)nn2)c1` [Example 14, Methyl (3-((1-((1R,3R)-3-((methoxycarbonyl)amino)cyclopentyl)-3-methyl-2-oxo-2,3-dihydro-1H-imidazo[4,5-c]pyridin-6-yl)amino)-5-(1-methyl-1H-1,2,3-triazol-4-yl)phenyl)carbamate]: the IC50 in assay [1] was greater than 1000 nM; in assay [2], 10 to 100 nM; in assay [3], greater than 1000 nM; in assay [4], no more than 10 nM.

For the compound `[2H]C([2H])([2H])n1c(=O)n([C@@H]2CC[C@@H](NC(=O)OC)C2)c2cc(Nc3cc(CN4CCOCC4)cc(-c4ccc5c(c4)OCCO5)n3)ncc21` [Example 74, Methyl ((1R,3R)-3-(6-((6-(2,3-dihydrobenzo[b][1,4]dioxin-6-yl)-4-(morpholinomethyl)pyridin-2-yl)amino)-3-(methyl-d3)-2-oxo-2,3-dihydro-1H-imidazo[4,5-c]pyridin-1-yl)cyclopentyl)carbamate], the IC50 in assay [1] is greater than 1000 nM; in assay [2], no more than 10 nM; in assay [3] it was greater than 1000 nM; in assay [4], no more than 10 nM.

On to `[2H]C([2H])([2H])n1cc(-c2cnc3ccc(Nc4cc5c(cn4)n(C)c(=O)n5[C@@H]4CC[C@@H](NC(=O)OC)C4)nn23)c(F)n1` [Example 59, Methyl ((1R,3R)-3-(6-((3-(3-fluoro-1-(methyl-d3)-1H-pyrazol-4-yl)imidazo[1,2-b]pyridazin-6-yl)amino)-3-methyl-2-oxo-2,3-dihydro-1H-imidazo[4,5-c]pyridin-1-yl)cyclopentyl)carbamate], for which the IC50 in assay [1] was greater than 1000 nM; in assay [2], no more than 10 nM; in assay [3], greater than 1000 nM; in assay [4] it was no more than 10 nM.

Turning to `CCOC(=O)c1cnc(Nc2cc(Nc3cc4c(cn3)n(C)c(=O)n4[C@@H]3CC[C@@H](NC(=O)OC)C3)cc(-c3cccc(C#N)c3)c2)o1` [Example 1, Ethyl 2-((3′-cyano-5-((1-((1R,3R)-3-((methoxycarbonyl)amino)cyclopentyl)-3-methyl-2-oxo-2,3-dihydro-1H-imidazo[4,5-c]pyridin-6-yl)amino)-[1,1′-biphenyl]-3-yl)amino)oxazole-5-carboxylate], the IC50 was greater than 1000 nM in assay [1], 100 to 500 nM in assay [2], greater than 1000 nM in assay [3] and 10 to 100 nM in assay [4].
